Reference: US6927211B2, “Method for reducing toxicity of combined chemotherapies” (Bristol-Myers Squibb Company, priority 2000, dated 2005)
Entries after “also recorded” stand apart in the source; their conditions may differ.

Legend:
Type in all cases: biochemical
human cardiac cytosol [1] = experiment: Reconstitution of DOX metabolism and DOXol formation, plus or minus taxanes, in human cardiac cytosol; details: for stimulation of DOXol formation (in words): [4Fe-4S]-depleted cytosol, DOX 25 μM, taxanes 1-50 μM, 4 h, FIG. 3; for doxorubicinol formation from DOX: taxane 1 μM, DOX without taxane 0.46±0.04, n=3, P<0.05
Procedure: (§1) Human myocardium is obtained from patients undergoing aorto-coronary bypass grafting. All samples were routinely disposed of by the surgeons from the lateral aspect of excluded right atrium during cannulation procedures for cardio-pulmonary by-pass. After storage at −80° C., pools of 15-20 samples are processed for cytosol preparation by sequential homogenization, ultracentrifugation and overnight 65% ammonium sulfate precipitation of 105,000 g supernatants. Next, cytosol is dialyzed against 100 mM Tris HCl-40 mM KCl, pH 8.9, diluted to 3 mg protein/ml with the same buffer, and incubated for 15 minutes at room temperature with 100 mM dithiothreitol to promote non-denaturing disassembly of the [4Fe-4S] cluster of cytoplasmic aconitase. This treatment is necessary as reactions of DOXol with [4Fe-4S] clusters would convert this metabolite back to DOX. Sizable amounts of DOXol would therefore go undetected if they reacted with [4Fe-4S] clusters prior to their assay. Unreacted dithiothreitol was eventually removed by sequential gel filtration on (1.5×10 cm) Sepharose 6B columns, protein reprecipitation with 65% ammonium sulfate, and extensive dialysis against 0.3 M NaCl, pH 7.0. Doxorubicin metabolism was reconstituted in 0.5 ml incubations containing cytosol (0.15 mg protein), NADPH (100 μM) and DOX (25 μM), in 0.3 M NaCl (pH 7.0) 37° C. Where indicated ethanol-dissolved taxanes (1-50 μM) were included. Aliquots of taxane-free ethanol (5 μl) were included as appropriate to adjust the final volume to 10 μl in all incubations. After 4 h DOX and DOXol were extracted with 2 ml of CHCl3/CH3OH (1:1) and separated by previously validated two-dimensional TLC on (20×20 cm) […] F524 Silica Gel Plates, using CHCl3/CH3OH/CH3COOH/H2O (80:20:14:6) as mobile phase in either dimension. Doxorubicinol was identified by cochromatography with (S)-DOXol from Streptomyces peucetius or (S) (R)-DOXol purified after NaBH4 reduction of DOX. Where indicated incubations were prepared by replacing DOX with DOX aglycone and by measuring formation of DOXol aglycone. The latter was separated from DOX aglycone by using CHCl3/CH3OH/CH3COOH (100:2:5) and CH3COOC2H5—CH3CH2OH—CH3COOH—H2O (80:10:5:5) in the first and second dimension, respectively. DOX aglycone was purified after thermoacid hydrolysis of DOX.

human cardiac cytosol [2] = experiment: Conversion of DOX aglycone into DOXol aglycone, plus or minus taxanes, in human cardiac cytosol; details: for stimulation of conversion of DOX aglycone into DOXol aglycone (in words): human cardiac cytosol, FIG. 4; for doxorubicinolone formation from doxorubicinone: taxane 1 μM, without taxane 0.8±0.1, n=3, P<0.05
Procedure: as §1

human cardiac microsomes [3] = experiment: NADPH oxidation by deoxycholate-solubilized human heart microsomes incubated with DOX, plus or minus taxanes; details: 10 μM DOX, 1-10 μM taxane; FIG. 5
Procedure: (§2) 105,000 g pellets from human myocardium homogenates are solubilized with deoxycolate and reconstituted at the final concentration of 0.025 mg prot/ml with 10 μM DOX, 1-10 μM taxane, 0.1 mM NADPH, in 0.3 M NaCl, pH 7.0, 37° C.
(§3) Electron flow from NADPH cytochrome P-450 reductase to the quinone moiety of DOX is detected by monitoring NADPH oxidation. Redox coupling of the semiquinone with oxygen is detected by monitoring formation of the superoxide anion radical with the superoxide dismutase-inhibitable reduction of cytochrome c (25 μM). These assays are performed in a Hewlett Packard 8453A UV/VIS/NIR spectrometer equipped with computer-assisted corrections for scatter and turbidity.

human cardiac microsomes [4] = experiment: Superoxide anion formation (SOD-inhibitable cytochrome c reduction) by deoxycholate-solubilized human heart microsomes with DOX, plus or minus taxanes; details: for increase of DOX-dependent superoxide anion formation (in words): 10 μM taxane with DOX
Procedure: as §2, §3

| Compound | stimulation of DOXol formation (in words) (human cardiac cytosol [1]) | stimulation of conversion of DOX aglycone into DOXol aglycone (in words) (human cardiac cytosol [2]) | stimulation of NADPH oxidation in the presence of DOX (in words) (human cardiac microsomes [3]) | increase of DOX-dependent superoxide anion formation (in words) (human cardiac microsomes [4]; FIG. 6) | doxorubicinol formation from DOX (human cardiac cytosol [1]) [nmol/mg prot./4h] | doxorubicinolone formation from doxorubicinone (human cardiac cytosol [2]) [nmol/mg prot./4h] | effect of DOX on superoxide anion formation (in words) (human cardiac microsomes [4]; DOX without taxane, FIG. 6) | generation of superoxide anion radicals in microsomal fractions (human cardiac microsomes [4]; taxane 10 μM, DOX without taxane 1.6±0.1, n=4-10, P<0.05) [nmol/mg prot./min] |
| --- | --- | --- | --- | --- | --- | --- | --- | --- |
| COC(=O)O[C@@]12CO[C@@H]1C[C@H](O)[C@@]1(C)C(=O)[C@H](OC(C)=O)C3=C(C)[C@@H](OC(=O)[C@H](O)[C@@H](NC(=O)c4ccccc4)c4ccccc4)C[C@@](O)([C@@H](OC(=O)c4ccccc4)[C@H]21)C3(C)C [4-desacetyl-4-methylcarbonate taxol] | did not stimulate; also recorded: did not increase | failed to stimulate; also recorded: did not increase; also recorded: has not been found to stimulate | stimulated this oxidation only at the highest levels tested; also recorded: stimulated NADPH oxidation only at the highest concentration tested, although this was not statistically significant | did not increase; also recorded: did not afford any significant stimulation |  |  |  |  |
| CC(=O)O[C@@]12CO[C@@H]1C[C@H](O)[C@@]1(C)C(=O)[C@H](O)C3=C(C)[C@@H](OC(=O)[C@H](O)[C@@H](NC(=O)OC(C)(C)C)c4ccccc4)C[C@@](O)([C@@H](OC(=O)c4ccccc4)[C@H]21)C3(C)C [DCT, docetaxel] | stimulate | able to stimulate | able to stimulate | significant increase | 1.2±0.2 | 1.3±0.2 |  |  |
| COc1cccc2c1C(=O)c1c(O)c3c(c(O)c1C2=O)C[C@@](O)(C(=O)CO)C[C@@H]3O[C@H]1C[C@H](N)[C@H](O)[C@H](C)O1 [DOX, doxorubicin] |  |  |  |  |  |  | enhances; also recorded: able to enhance |  |
| CC(=O)O[C@H]1C(=O)[C@@]2(C)[C@H]([C@H](OC(=O)c3ccccc3)[C@]3(O)C[C@H](OC(=O)[C@H](O)[C@@H](NC(=O)c4ccccc4)c4ccccc4)C(C)=C1C3(C)C)[C@]1(OC(C)=O)CO[C@@H]1C[C@@H]2O [PTX, paclitaxel] | stimulate | able to stimulate | able to stimulate | significant increase | 1.1±0.2 | 1.4±0.2 |  | 2.2±0.2 |
